According to paper PMC5218480 (PLoS ONE, 2017):

Tested on: MV-4-11 cells
Assay: Gene expression microarray analysis (Affymetrix PrimeView) and GSEA
Format: cell-based, human
Set-up: RFU PODN (11730768_x_at) / Fold change /veh PODN (11730768_x_at) / RFU LINC00158 (11744669_a_at) / Fold change /veh LINC00158 (11744669_a_at) / RFU DUSP10 (11751237_a_at) / Fold change /veh DUSP10 (11751237_a_at) / RFU ID3 (11757404_x_at) / Fold change /veh ID3 (11757404_x_at) / RFU PLEKHG5 (11737974_s_at) / Fold change /veh PLEKHG5 (11737974_s_at) / RFU LRRC4B (11730491_at) / Fold change /veh LRRC4B (11730491_at) / RFU GIMAP4 (11747438_a_at) / Fold change /veh GIMAP4 (11747438_a_at) / RFU KRT8 (11758183_x_at) / Fold change /veh KRT8 (11758183_x_at) / RFU CNN1 (11734310_a_at) / Fold change /veh CNN1 (11734310_a_at) / RFU VPS37D (11726825_at) / Fold change /veh VPS37D (11726825_at) / RFU C10orf10 (11716522_x_at) / Fold change /veh C10orf10 (11716522_x_at) / RFU KIR2DL2 /// KIR2DL4 /// KIR2DL5A /// KIR2DL5B /// KIR2DS1 /// KIR2DS2 /// KIR2DS3 /// KIR2DS4 /// KIR3DL3 /// KIR3DL3 /// KIR3DS1 (11738374_at) / Fold change /veh KIR2DL2 /// KIR2DL4 /// KIR2DL5A /// KIR2DL5B /// KIR2DS1 /// KIR2DS2 /// KIR2DS3 /// KIR2DS4 /// KIR3DL3 /// KIR3DL3 /// KIR3DS1 (11738374_at) / RFU C1QL1 (11718748_at) / Fold change /veh C1QL1 (11718748_at) / RFU TMPRSS4 (11747572_a_at) / Fold change /veh TMPRSS4 (11747572_a_at) / RFU HAMP (11756126_x_at) / Fold change /veh HAMP (11756126_x_at) / RFU RNFT2 (11725882_a_at) / Fold change /veh RNFT2 (11725882_a_at) / RFU NR4A2 (11747474_a_at) / Fold change /veh NR4A2 (11747474_a_at) / RFU ABCC12 (11746883_a_at) / Fold change /veh ABCC12 (11746883_a_at) / RFU TMEM136 (11760407_x_at) / Fold change /veh TMEM136 (11760407_x_at) / RFU CLDN22 /// WWC2 (11732394_at) / Fold change /veh CLDN22 /// WWC2 (11732394_at) / RFU HLA-DPB1 (11760878_x_at) / Fold change /veh HLA-DPB1 (11760878_x_at) / RFU SPINT1 (11716480_a_at) / Fold change /veh SPINT1 (11716480_a_at) / RFU GAP43 (11754022_s_at) / Fold change /veh GAP43 (11754022_s_at) / RFU A4GNT (11735810_at) / Fold change /veh A4GNT (11735810_at) / RFU PRB3 (11715151_x_at) / Fold change /veh PRB3 (11715151_x_at) / RFU TUBB4B (11761932_at) / Fold change /veh TUBB4B (11761932_at) / RFU CAPN14 (11732068_a_at) / Fold change /veh CAPN14 (11732068_a_at) / RFU TMCC2 (11721928_a_at) / Fold change /veh TMCC2 (11721928_a_at) / RFU IRGQ (11745062_a_at) / Fold change /veh IRGQ (11745062_a_at) / RFU FAM174B (11720279_a_at) / Fold change /veh FAM174B (11720279_a_at) / RFU TMPRSS4 (11748680_a_at) / Fold change /veh TMPRSS4 (11748680_a_at) / RFU FAM212B (11763350_a_at) / Fold change /veh FAM212B (11763350_a_at) / RFU PLEKHG5 (11743358_a_at) / Fold change /veh PLEKHG5 (11743358_a_at) / RFU ZSCAN30 (11745921_a_at) / Fold change /veh ZSCAN30 (11745921_a_at) / RFU CMKLR1 (11741424_a_at) / Fold change /veh CMKLR1 (11741424_a_at) / RFU LOC101060620 /// MAPK8IP1 (11723275_at) / Fold change /veh LOC101060620 /// MAPK8IP1 (11723275_at) / RFU SPTSSB (11747773_x_at) / Fold change /veh SPTSSB (11747773_x_at) / RFU PRSS12 (11739890_at) / Fold change /veh PRSS12 (11739890_at) / RFU BIN1 (11741810_x_at) / Fold change /veh BIN1 (11741810_x_at) / RFU WNT11 (11732464_a_at) / Fold change /veh WNT11 (11732464_a_at) / RFU C10orf10 (11716521_a_at) / Fold change /veh C10orf10 (11716521_a_at) / RFU C5orf56 (11738089_at) / Fold change /veh C5orf56 (11738089_at) / RFU CYB561 (11721691_x_at) / Fold change /veh CYB561 (11721691_x_at) / RFU ANKRD19P (11752326_a_at) / Fold change /veh ANKRD19P (11752326_a_at) / RFU OR2T12 /// OR2T33 /// OR2T8 (11738714_s_at) / Fold change /veh OR2T12 /// OR2T33 /// OR2T8 (11738714_s_at) / RFU VCAN (11748164_a_at) / Fold change /veh VCAN (11748164_a_at) / RFU JSRP1 (11732532_at) / Fold change /veh JSRP1 (11732532_at) / RFU KRTAP10-11 (11738290_x_at) / Fold change /veh KRTAP10-11 (11738290_x_at) / RFU MYO3A (11730013_a_at) / Fold change /veh MYO3A (11730013_a_at) / RFU EBF3 (11725865_a_at) / Fold change /veh EBF3 (11725865_a_at) / RFU CAMK2N1 (11719241_x_at) / Fold change /veh CAMK2N1 (11719241_x_at) / RFU C5orf56 (11738088_a_at) / Fold change /veh C5orf56 (11738088_a_at) / RFU OLFML3 (11715873_a_at) / Fold change /veh OLFML3 (11715873_a_at) / RFU LOC100653217 /// NTM (11731650_a_at) / Fold change /veh LOC100653217 /// NTM (11731650_a_at) / RFU MAPK11 (11762145_a_at) / Fold change /veh MAPK11 (11762145_a_at) / RFU FIZ1 (11724087_x_at) / Fold change /veh FIZ1 (11724087_x_at) / RFU OASL (11726364_x_at) / Fold change /veh OASL (11726364_x_at) / RFU SOX15 (11748057_x_at) / Fold change /veh SOX15 (11748057_x_at) / RFU CD79A (11719716_a_at) / Fold change /veh CD79A (11719716_a_at) / RFU HIST1H1D (11736915_at) / Fold change /veh HIST1H1D (11736915_at) / RFU CASKIN2 (11723855_a_at) / Fold change /veh CASKIN2 (11723855_a_at) / RFU LOC730098 (11760151_x_at) / Fold change /veh LOC730098 (11760151_x_at) / RFU OR4N2 (11742367_at) / Fold change /veh OR4N2 (11742367_at) / RFU PRRT2 (11749266_a_at) / Fold change /veh PRRT2 (11749266_a_at) / RFU SNX32 (11753110_a_at) / Fold change /veh SNX32 (11753110_a_at) / RFU CDHR5 (11726645_a_at) / Fold change /veh CDHR5 (11726645_a_at) / RFU RCAN1 (11760418_a_at) / Fold change /veh RCAN1 (11760418_a_at) / RFU FAM167A (11723789_a_at) / Fold change /veh FAM167A (11723789_a_at) / RFU FAM26E (11764081_at) / Fold change /veh FAM26E (11764081_at) / RFU ISYNA1 (11749810_s_at) / Fold change /veh ISYNA1 (11749810_s_at) / RFU ACY1 (11761880_at) / Fold change /veh ACY1 (11761880_at) / RFU 11764098_at / Fold change /veh 11764098_at / RFU SAMD14 (11745864_x_at) / Fold change /veh SAMD14 (11745864_x_at) / RFU NPB (11741838_a_at) / Fold change /veh NPB (11741838_a_at) / RFU TMPRSS6 (11731388_a_at) / Fold change /veh TMPRSS6 (11731388_a_at) / RFU KRTAP10-2 (11738614_at) / Fold change /veh KRTAP10-2 (11738614_at) / RFU ARHGAP8 /// PRR5-ARHGAP8 (11727945_x_at) / Fold change /veh ARHGAP8 /// PRR5-ARHGAP8 (11727945_x_at) / RFU KRTAP5-7 /// NADSYN1 (11734609_at) / Fold change /veh KRTAP5-7 /// NADSYN1 (11734609_at) / RFU RASL12 (11751679_a_at) / Fold change /veh RASL12 (11751679_a_at) / RFU CDKN2B (11736163_a_at) / Fold change /veh CDKN2B (11736163_a_at) / RFU PRF1 (11729649_at) / Fold change /veh PRF1 (11729649_at) / RFU, ZNF638 /// ZNF638-IT1 / Fold change vs veh, ZNF638 /// ZNF638-IT1 / RFU, PANK3 / Fold change vs veh, PANK3 / RFU, SH3YL1 / Fold change vs veh, SH3YL1 / RFU, ZEB2 / Fold change vs veh, ZEB2 / RFU, NRIP1 / Fold change vs veh, NRIP1 / RFU, PTTG1IP / Fold change vs veh, PTTG1IP / RFU, CAPN2 / Fold change vs veh, CAPN2 / RFU, MED14 / Fold change vs veh, MED14 / RFU, SNORA58 / Fold change vs veh, SNORA58 / RFU, C1orf63 / Fold change vs veh, C1orf63 / RFU, LRRFIP1 / Fold change vs veh, LRRFIP1 / RFU, NDUFAF7 / Fold change vs veh, NDUFAF7 / RFU, SLC12A2 / Fold change vs veh, SLC12A2 / RFU, IBTK / Fold change vs veh, IBTK / RFU, ESF1 / Fold change vs veh, ESF1 / Fold change vs veh, TMEM50B / RFU, TAOK1 / Fold change vs veh, TAOK1 / RFU, ACBD3 / Fold change vs veh, ACBD3 / RFU, TMA16 / Fold change vs veh, TMA16 / RFU, RWDD3 / Fold change vs veh, RWDD3 / RFU, BCAT1 / Fold change vs veh, BCAT1 / RFU, EDEM3 / Fold change vs veh, EDEM3 / RFU, TMEM33 / Fold change vs veh, TMEM33 / RFU, WDR75 / Fold change vs veh, WDR75 / RFU, AHCTF1 / Fold change vs veh, AHCTF1 / RFU, TFRC / Fold change vs veh, TFRC / RFU, ZDHHC17 / Fold change vs veh, ZDHHC17 / RFU, NOM1 / Fold change vs veh, NOM1 / RFU, ARL8B / Fold change vs veh, ARL8B / RFU, ZBTB11 / Fold change vs veh, ZBTB11 / RFU, TAMM41 / Fold change vs veh, TAMM41 / RFU, KIAA1704 /// LOC100996395 / Fold change vs veh, KIAA1704 /// LOC100996395 / RFU, ING1 / Fold change vs veh, ING1 / RFU, TRMT61B / Fold change vs veh, TRMT61B / RFU, FUBP3 / Fold change vs veh, FUBP3 / RFU, TP53 / Fold change vs veh, TP53 / RFU, TNKS2 / Fold change vs veh, TNKS2 / RFU, ZFP14 / Fold change vs veh, ZFP14 / RFU, ACTR2 / Fold change vs veh, ACTR2 / RFU, PPP3R1 / Fold change vs veh, PPP3R1 / RFU, PIK3R1 / Fold change vs veh, PIK3R1 / RFU, HNRNPA1 / Fold change vs veh, HNRNPA1 / RFU, RNF170 / Fold change vs veh, RNF170 / RFU, ZNF28 / Fold change vs veh, ZNF28 / RFU, RNGTT / Fold change vs veh, RNGTT / RFU, OGT / Fold change vs veh, OGT / RFU, BRD1 / Fold change vs veh, BRD1 / RFU, MARS / Fold change vs veh, MARS / RFU, ZNF655 / Fold change vs veh, ZNF655 / RFU, FAHD1 / Fold change vs veh, FAHD1 / RFU, BDP1 / Fold change vs veh, BDP1 / RFU, LRRCC1 / Fold change vs veh, LRRCC1 / RFU, ARID1A / Fold change vs veh, ARID1A / RFU, ZNF146 / Fold change vs veh, ZNF146 / RFU, ZNF330 / Fold change vs veh, ZNF330 / RFU, GPN3 / Fold change vs veh, GPN3 / RFU, C9orf123 / Fold change vs veh, C9orf123 / RFU, N4BP2L2 / Fold change vs veh, N4BP2L2 / RFU, ARFIP1 / Fold change vs veh, ARFIP1 / RFU, FAM179B / Fold change vs veh, FAM179B / RFU, BCL10 / Fold change vs veh, BCL10 / RFU, UHRF1BP1L / Fold change vs veh, UHRF1BP1L / RFU, BET1 / Fold change vs veh, BET1 / RFU, CNOT2 / Fold change vs veh, CNOT2 / RFU, ZNF268 / Fold change vs veh, ZNF268 / Fold change vs veh, ZNF507 / RFU, DGCR2 / Fold change vs veh, DGCR2 / RFU, WDSUB1 / Fold change vs veh, WDSUB1 / Fold change vs veh, HSP90B1 /// MIR3652 / RFU, ADSS / Fold change vs veh, ADSS / RFU, GK / Fold change vs veh, GK / RFU, ZNF148 / Fold change vs veh, ZNF148 / RFU, TAF9 / Fold change vs veh, TAF9 / RFU, SLC1A5 / Fold change vs veh, SLC1A5 / RFU, SLMO2 / Fold change vs veh, SLMO2 / RFU, ABCC4 / Fold change vs veh, ABCC4 / RFU, LOC101060439 /// RAP1B / Fold change vs veh, LOC101060439 /// RAP1B / RFU, RFX7 / Fold change vs veh, RFX7 / RFU, GTPBP10 / Fold change vs veh, GTPBP10 / RFU, CNEP1R1 / Fold change vs veh, CNEP1R1 / RFU, BIVM-ERCC5 /// ERCC5 / Fold change vs veh, BIVM-ERCC5 /// ERCC5 / RFU, ILF3 / Fold change vs veh, ILF3 / RFU 11762660_at / Fold change /veh 11762660_at / RFU VCAN (11757783_s_at) / Fold change /veh VCAN (11757783_s_at) / RFU DDX43 (11728927_at) / Fold change /veh DDX43 (11728927_at) / RFU KRT8 (11758188_x_at) / Fold change /veh KRT8 (11758188_x_at) / RFU NKD1 (11759106_at) / Fold change /veh NKD1 (11759106_at) / RFU SRD5A1 (11742802_a_at) / Fold change /veh SRD5A1 (11742802_a_at) / RFU TPSAB1 /// TPSB2 (11721975_s_at) / Fold change /veh TPSAB1 /// TPSB2 (11721975_s_at) / RFU GSTM3 (11746129_a_at) / Fold change /veh GSTM3 (11746129_a_at) / RFU IL23R (11737362_x_at) / Fold change /veh IL23R (11737362_x_at) / RFU TMEM51 (11727254_a_at) / Fold change /veh TMEM51 (11727254_a_at) / RFU PIWIL2 (11732686_x_at) / Fold change /veh PIWIL2 (11732686_x_at) / RFU ORM1 (11744905_x_at) / Fold change /veh ORM1 (11744905_x_at) / RFU CCDC152 (11743942_at) / Fold change /veh CCDC152 (11743942_at) / RFU ECM1 (11717891_a_at) / Fold change /veh ECM1 (11717891_a_at) / RFU IL23R (11748794_a_at) / Fold change /veh IL23R (11748794_a_at) / RFU TNFAIP8L3 (11732012_x_at) / Fold change /veh TNFAIP8L3 (11732012_x_at) / RFU MBOAT4 (11741988_at) / Fold change /veh MBOAT4 (11741988_at) / RFU 11764193_at / Fold change /veh 11764193_at / RFU TMEM53 (11763286_at) / Fold change /veh TMEM53 (11763286_at) / RFU MAGEB2 (11727129_at) / Fold change /veh MAGEB2 (11727129_at) / RFU TMEM200A (11744735_a_at) / Fold change /veh TMEM200A (11744735_a_at) / RFU CCDC152 (11751479_a_at) / Fold change /veh CCDC152 (11751479_a_at) / RFU FAM211A (11726209_a_at) / Fold change /veh FAM211A (11726209_a_at) / RFU RGS16 (11746705_a_at) / Fold change /veh RGS16 (11746705_a_at) / RFU VCAN (11755009_s_at) / Fold change /veh VCAN (11755009_s_at) / RFU RHOB (11743442_s_at) / Fold change /veh RHOB (11743442_s_at) / RFU RGS16 (11720943_a_at) / Fold change /veh RGS16 (11720943_a_at) / RFU RGS16 (11720944_at) / Fold change /veh RGS16 (11720944_at) / RFU, VPS4B / Fold change vs veh, VPS4B / RFU, CREB1 / Fold change vs veh, CREB1 / RFU, DNAJC13 / Fold change vs veh, DNAJC13 / RFU, GNAQ / Fold change vs veh, GNAQ / RFU, CDK5R1 / Fold change vs veh, CDK5R1 / RFU, ZRANB3 / Fold change vs veh, ZRANB3 / RFU, CUL4A / Fold change vs veh, CUL4A / RFU, CCNY / Fold change vs veh, CCNY / RFU, UFL1 / Fold change vs veh, UFL1 / RFU, COG3 / Fold change vs veh, COG3 / RFU, DIAPH2 / Fold change vs veh, DIAPH2 / RFU, SKA2 / Fold change vs veh, SKA2 / RFU, AFF3 / Fold change vs veh, AFF3 / RFU, LMF1 / Fold change vs veh, LMF1 / RFU, IPO11 / Fold change vs veh, IPO11 / RFU, DFFB / Fold change vs veh, DFFB / RFU, FOXP1 / Fold change vs veh, FOXP1 / RFU, CARD8 / Fold change vs veh, CARD8 / RFU, STRN3 / Fold change vs veh, STRN3 / RFU, ADK / Fold change vs veh, ADK / RFU, RASSF2 / Fold change vs veh, RASSF2 / RFU, WIPF1 / Fold change vs veh, WIPF1 / RFU, LARP1B / Fold change vs veh, LARP1B / RFU, RASA1 / Fold change vs veh, RASA1 / RFU, RB1 / Fold change vs veh, RB1 / RFU, PPFIA1 / Fold change vs veh, PPFIA1 / RFU, MAT2A / Fold change vs veh, MAT2A / RFU, CCT5 / Fold change vs veh, CCT5 / RFU, WDR92 / Fold change vs veh, WDR92 / RFU, CUX1 / Fold change vs veh, CUX1 / RFU, TTC7A / Fold change vs veh, TTC7A / RFU, TMEM135 / Fold change vs veh, TMEM135 / RFU, DEPTOR / Fold change vs veh, DEPTOR / RFU, CPM / Fold change vs veh, CPM / RFU, DNAJB6 / Fold change vs veh, DNAJB6 / RFU, CACNA2D3 / Fold change vs veh, CACNA2D3 / RFU, DTX4 / Fold change vs veh, DTX4 / RFU, TFCP2 / Fold change vs veh, TFCP2 / RFU, GMCL1 /// GMCL1P1 / Fold change vs veh, GMCL1 /// GMCL1P1 / RFU, AEBP2 / Fold change vs veh, AEBP2 / RFU, SNHG1 /// SNORD22 /// SNORD25 /// SNORD26 /// SNORD27 /// SNORD28 /// SNORD29 /// SNORD31 / Fold change vs veh, SNHG1 /// SNORD22 /// SNORD25 /// SNORD26 /// SNORD27 /// SNORD28 /// SNORD29 /// SNORD31 / Fold change (Aza/veh), C12orf56 (ProbeSet 11735607_a_at) / Fold change (ACY-1035/veh), C12orf56 (ProbeSet 11735607_a_at) / Fold change (Aza/veh), FGFR1OP (ProbeSet 11751329_s_at) / Fold change (ACY-1035/veh), FGFR1OP (ProbeSet 11751329_s_at) / Fold change (Aza/veh), VPS36 (ProbeSet 11739960_a_at) / Fold change (ACY-1035/veh), VPS36 (ProbeSet 11739960_a_at) / RFU SYPL1 (11715823_x_at) / Fold change /veh SYPL1 (11715823_x_at) / RFU IGFBP7 (11715501_s_at) / Fold change /veh IGFBP7 (11715501_s_at) / RFU REEP3 (11722064_at) / Fold change /veh REEP3 (11722064_at) / RFU IGLL1 (11728026_x_at) / Fold change /veh IGLL1 (11728026_x_at): dose or concentration left out as unconfirmed
Settings: ProbeSet 11763166_a_at; LIST B

Nc1ncn([C@@H]2O[C@H](CO)[C@@H](O)[C@H]2O)c(=O)n1 [azacitidine]
RFU, MARS: 35.99 RFU
